{"source": "patent US10183053B1", "about": "“Multi-component formulations” (priority 2017, dated 2019)", "key": {"[1]": {"tested_on": "human stem cell derived neurons", "assay": "Cell viability of human stem cell derived neurons treated with multi-component formulations (Hoechst/propidium iodide, ArrayScan VTI)", "assay_type": "cell-based", "method": "Cryopreserved human stem cell derived neurons obtained from PhoenixSongs Biologicals were thawed and plated at a density of 12000 cells per well in a 384-well PDL/laminin coated plate. The neurons were maintained in a humidified environment at 37° C. with 5% CO2 for six days with periodic media changes before experimental procedures were performed. […] Cells were dosed in triplicate with 10-point dose response curves to determine if there was any protective effect (improved survival of cells) or toxicity with the test compounds versus the untreated cells. A positive control (chlorpromazine) was also used to assess cytotoxicity response in these cells. After a three-day incubation with test compositions, the cells were stained with Hoechst and propidium iodide and read on an ArrayScan VTI to determine cell viability. Results were normalized to vehicle and graphed using GraphPad Prism. […]"}, "primary chicken neurons": {"tested_on": "primary chicken neurons", "assay": "MTT cell viability assay in primary chicken neurons", "assay_type": "cell-based", "details": "for concentration above which cell viability declined: compared to vehicle control, FIG. 5, FIG. 6; for Cell viability, Mean: no MSM nor FDP, 48 h", "method": "Fertilized chicken eggs were stored under turning at 37.8° C. and 55% humidity until embryonic day eight. Embryos were transferred to a plastic dish and decapitated. Both hemispheres were removed, collected and cleaned from any loose tissue. Hemispheres were mechanically dissociated and 4.8×10^4 cells per well (96-well plates) were seeded in a volume of 160 μL. The cell culture medium consisted of Dubelcco's Modified Eagle's Medium with […], 5% Nu Serum, 0.01% gentamycin and 2 mM L-glutamine. Cultures were maintained at 37° C., 95% humidity and 5% CO2.\nTest compositions and vehicle controls were applied to chicken neurons at day-in-vitro 8 for 48 h. On day-in-vitro 10 the viability of neurons was determined according to MTT cell viability assay using a plate reader (570 nm). That assay allows the measurement of the mitochondrial dehydrogenase activity, which reduces yellow MTT to dark blue formazan crystals. Since this reaction is catalyzed in living cells only, this assay is used for the determination of cell viability. MTT solution was added to each well in a final concentration of 0.5 mg/mL. After two hours the MTT-containing medium is aspired. Cells were lysed in 3% SDS and the formazan crystals were dissolved in isopropanol/HCl. Optical density was measured with a plate reader at 570 nm. Cell survival rage was expressed as optical density (OS). Values were calculated as percent of control values (vehicle control, which is medium).\nUsing the same protocol as in Example 2, primary chicken neurons were treated with varying concentrations of methylsulfonylmethane and/or fructose 1,6-diphosphate. Cell viability was determined with the MTT assay.\nUsing the protocol of Example 2, a formulation containing methylsulfonylmethane (0.1 μM), D-fructose 1,6-diphosphate trisodium salt hydrate (1 μM), and rutin (0.001 μM) was tested for cell viability in primary chicken neurons. Vehicle control (medium) and methylsulfonylmethane with fructose 1,6-diphosphate compositions were also tested. The results appear in FIG. 12."}}, "data": [{"smiles": "CN(C)CCCN1c2ccccc2Sc2ccc(Cl)cc21", "note": "[Chlorpromazine, chlorpromazine]", "values": [{"measurement": "IC50", "setting": "[1]; Homo sapiens, Neuron, 72 h, three-day incubation, formulations in medium with MSM 0.1 μM and FDP 1 μM, chlorpromazine without MSM and FDP, read-out: IC50 for Cell Loss", "result": 3.8, "unit": "µM"}, {"measurement": "neuron cell toxicity / safety (in words)", "setting": "[1]; at comparable concentrations", "result": "relatively high neuron cell toxicity"}]}, {"smiles": "O=C(COP(=O)(O)O)[C@@H](O)[C@H](O)[C@H](O)COP(=O)(O)O", "note": "[FDP, fructose 1,6-diphosphate]", "values": [{"measurement": "concentration above which cell viability declined", "setting": "primary chicken neurons", "result": "above 0.1 mM"}]}, {"smiles": "CS(C)(=O)=O", "note": "[MSM, methylsulfonylmethane]", "values": [{"measurement": "concentration above which cell viability declined", "setting": "primary chicken neurons", "result": "above 5 mM"}]}, {"smiles": "C[C@@H]1O[C@@H](OC[C@H]2O[C@@H](Oc3c(-c4ccc(O)c(O)c4)oc4cc(O)cc(O)c4c3=O)[C@H](O)[C@@H](O)[C@@H]2O)[C@H](O)[C@H](O)[C@H]1O", "note": "[Rutin, quercetin-3-O-rutinoside]", "values": [{"measurement": "Cell viability, Mean", "setting": "primary chicken neurons; rutin 0.001 (μM), vehicle alone", "result": "96.7% of control"}, {"measurement": "Cell viability, Mean", "setting": "primary chicken neurons; rutin 0.01, vehicle alone", "result": "99.7% of control"}, {"measurement": "Cell viability, Mean", "setting": "primary chicken neurons; rutin 0.1, vehicle alone", "result": "98.1% of control"}, {"measurement": "Cell viability, Mean", "setting": "primary chicken neurons; rutin 1, vehicle alone", "result": "97.7% of control"}, {"measurement": "Cell viability, Mean", "setting": "primary chicken neurons; rutin 10, vehicle alone", "result": "100.2% of control"}]}]}
